# Reference: patent US20230331690A1, “THC DERIVATIVES, ORAL DOSAGE FORMS COMPRISING SAME, USES THEREOF FOR TREATING DISEASES AND DISORDERS AND SYNTHESIS THEREOF” (BAR-ILAN UNIVERSITY, priority 2020, published 2023)
# “And” between values parts separate entries of the source, which are not always exact repeats. Equal values may be shown once.
# How the values were obtained:
# [1] = test system: hind paw of mice; test: Electronic Von-Frey mechanical sensitivity (withdrawal thresholds) after Paclitaxel-induced neuropathic pain; type: in vivo; conditions: for Withdrawal test, test 1 / Withdrawal test, test 4 / Withdrawal test, test 5 / Withdrawal test, test 6 / Withdrawal test, test 2 / Withdrawal test, test 3: per animal; for Withdrawal test, All group average: 8 mice; for Withdrawal test, Average: average per animal; for Withdrawal test, Change from b.l.: group average vs baseline; for Withdrawal test, test 6: additional test
# Protocol: Mechanical sensitivity was evaluated by measuring the changes in tactile sensitivity in the hind paw of mice, using an Electronic Von-Frey apparatus (EVF). Withdrawal thresholds were measured, using the EVF apparatus, first at baseline (time=0) and then following drug, in a few periods after administration, by applying an accurate force on specific areas of the skin and measuring the needed force for the mouse to lift its paw.
# Paclitaxel was utilized for the stimulation of a chemotherapy-induced neuropathic pain. Paclitaxel is anti-cancer chemotherapy drug classified as a “plant alkaloid” and an “antimicrotubule agent”.
# Mice were divided into three groups of 8 mice each, as follows: • (a) Group no. 1—Morphine as positive control; • (b) Group no. […] 3—synthetic THC derivative 9-Desmethyl THC.
# A portion of Paclitaxel was administered to each mouse by i.p. injection, on days 1, 3, 5 and 7 from the beginning of the experiment. At day 8, withdrawal thresholds were measured first at baseline (time=0), thereafter each mouse received a single portion of a drug substance, at 5 mg/Kg body weight concentration, by oral gavage and measurements took place.
# The first checking point was 1 hour after administration of each drug. For every mouse, its threshold for the pain perception in which it removes its hind paw after the stabbing of the Von-Frey hair has been checked. Needed force (in gram force units) was measured each time and was recorded for every checking. This test was repeated 5 times for each mouse consecutively.
# This procedure was repeated for all the three groups. The next checking point was 3 hours after administration, where the last withdrawal thresholds measurements were performed on the next morning, on day 9, which was 24 hours after administration.
# Morphine was utilized as a positive control where group no. 1 mice received morphine (dissolved in a saline solution (0.9%) and injected subcutaneously) as an analgesic agent, prior to the mechanical sensitivity tests.
# The tests described in this example are complicated and depend on numerous factors. Accordingly, results above 10.0 gram force (marked with an asterisk) were not included in the evaluation of the experimental data. In cases of exceptional results, an additional test was performed mouse (test 6) in order to assure the exceptional result.
# [2] = test system: mice; test: Hot plate assay, withdrawal reflex latency (WRL); type: in vivo; conditions: for Hot plate Time: per animal
# [3] = t = 1 h after 5 mg/Kg single dose (oral gavage; morphine s.c.), * values >10.0 excluded from evaluation
# [4] = t = 1 h after 5 mg/Kg, * values excluded
# [5] = t = 3 h after 5 mg/Kg, * values excluded
# [6] = t = 24 h after 5 mg/Kg, * values excluded
structure (smiles),measurement,setting,value
"CCCCCc1cc(O)c2c(c1)OC(C)(C)[C@@H]1CCC=C[C@@H]21 [9-Desmethyl THC, 9-desmethyl-THC]",average decrease in the withdrawal thresholds,"[1]; 1 h after 5 mg/Kg, vs baseline",10.2%
same,decrease compared to baseline in the withdrawal thresholds,[1]; 3 h after 5 mg/Kg,12.1%
same,"Withdrawal test, test 1",[1]; [3],4.0 gram force (2×) and 7.2 gram force and 5.1 gram force and 4.3 gram force and 4.9 gram force and 7.3 gram force and 5.3 gram force
same,"Withdrawal test, All group average",[1]; t = 1 h after 5 mg/Kg,5.55 gram force
same,"Withdrawal test, Average",[1]; t = 1 h after 5 mg/Kg,4.82 gram force and 5.82 gram force and 5.84 gram force and 6.20 gram force and 5.12 gram force and 5.18 gram force and 5.98 gram force and 5.42 gram force
same,"Withdrawal test, Change from b.l.",[1]; t = 1 h after 5 mg/Kg,−10.2%
same,"Withdrawal test, test 4",[1]; t = 1 h after 5 mg/Kg,5.3 gram force (2×) and 5.7 gram force and 4.0 gram force and 4.3 gram force (2×) and 5.4 gram force and 4.5 gram force
same,"Withdrawal test, test 5",[1]; t = 1 h after 5 mg/Kg,4.3 gram force and 6.8 gram force (2×) and 4.4 gram force and 7.4 gram force and 4.6 gram force and 4.1 gram force and 5.6 gram force
same,"Withdrawal test, test 6",[1]; t = 1 h after 5 mg/Kg,6.3 gram force and 5.3 gram force
same,"Withdrawal test, test 2",[1]; [4],6.1 gram force (2×) and 4.7 gram force and 9.8 gram force and 9.4 gram force and 6.7 gram force and 5.7 gram force and 4.0 gram force
same,"Withdrawal test, test 3",[1]; [4],4.4 gram force and 5.1 gram force and 4.2 gram force (2×) and 6.2 gram force and 5.7 gram force and 7.0 gram force and 7.7 gram force
same,"Withdrawal test, All group average",[1]; t = 3 h after 5 mg/Kg,5.43 gram force
same,"Withdrawal test, Average",[1]; t = 3 h after 5 mg/Kg,5.34 gram force and 5.02 gram force and 5.00 gram force and 5.62 gram force and 5.70 gram force (2×) and 5.22 gram force and 5.86 gram force
same,"Withdrawal test, Change from b.l.",[1]; t = 3 h after 5 mg/Kg,−12.1%
same,"Withdrawal test, test 2",[1]; t = 3 h after 5 mg/Kg,5.1 gram force and 4.6 gram force and 4.8 gram force (2×) and 8.6 gram force (2×) and 4.7 gram force and 5.5 gram force
same,"Withdrawal test, test 4",[1]; t = 3 h after 5 mg/Kg,4.1 gram force and 5.0 gram force and 5.4 gram force (2×) and 9.5 gram force and 4.9 gram force and 6.0 gram force and 4.2 gram force
same,"Withdrawal test, test 5",[1]; t = 3 h after 5 mg/Kg,4.7 gram force (2×) and 6.3 gram force and 4.2 gram force and 4.3 gram force and 6.5 gram force and 6.8 gram force and 7.0 gram force
same,"Withdrawal test, test 6",[1]; t = 3 h after 5 mg/Kg,4.4 gram force and 4.9 gram force (2×)
same,"Withdrawal test, test 1",[1]; [5],7.4 gram force and 5.0 gram force and 4.8 gram force and 4.3 gram force and 4.5 gram force and 4.6 gram force and 7.0 gram force and 6.8 gram force
same,"Withdrawal test, test 3",[1]; [5],5.4 gram force and 4.2 gram force and 5.8 gram force and 5.2 gram force and 4.0 gram force (3×) and 4.6 gram force
same,"Withdrawal test, All group average",[1]; t = 24 h after 5 mg/Kg,5.36 gram force
same,"Withdrawal test, Average",[1]; t = 24 h after 5 mg/Kg,6.58 gram force and 4.80 gram force and 5.28 gram force and 6.12 gram force and 4.96 gram force and 4.74 gram force and 5.16 gram force and 5.26 gram force
same,"Withdrawal test, Change from b.l.",[1]; t = 24 h after 5 mg/Kg,−13.3%
same,"Withdrawal test, test 1",[1]; t = 24 h after 5 mg/Kg,5.4 gram force and 5.0 gram force (2×) and 4.2 gram force (3×) and 7.0 gram force and 7.1 gram force
same,"Withdrawal test, test 2",[1]; t = 24 h after 5 mg/Kg,6.9 gram force and 4.1 gram force (3×) and 4.7 gram force and 5.6 gram force and 4.4 gram force and 4.5 gram force
same,"Withdrawal test, test 3",[1]; t = 24 h after 5 mg/Kg,8.8 gram force and 4.1 gram force (2×) and 4.7 gram force and 4.2 gram force and 4.0 gram force and 5.6 gram force and 6.1 gram force
same,"Withdrawal test, test 4",[1]; [6],4.4 gram force and 6.2 gram force and 8.1 gram force and 9.0 gram force and 5.0 gram force and 5.1 gram force and 7.6 gram force and 4.0 gram force
same,"Withdrawal test, test 5",[1]; [6],7.4 gram force and 4.6 gram force (2×) and *10.0 gram force and 5.8 gram force and 7.3 gram force and 4.0 gram force (2×)
"CN1CC[C@]23c4c5ccc(O)c4O[C@H]2[C@@H](O)C=C[C@H]3[C@H]1C5 [Morphine, reference compound]","Withdrawal test, test 1",[1]; [3],4.4 gram force (2×) and 8.5 gram force and 8.4 gram force and 5.2 gram force and 5.9 gram force and 4.7 gram force and 5.6 gram force
same,"Withdrawal test, All group average",[1]; t = 1 h after 5 mg/Kg,6.21 gram force
same,"Withdrawal test, Average",[1]; t = 1 h after 5 mg/Kg,5.68 gram force (2×) and 7.80 gram force and 7.17 gram force and 6.62 gram force and 6.02 gram force and 5.26 gram force and 5.45 gram force
same,"Withdrawal test, Change from b.l.",[1]; t = 1 h after 5 mg/Kg,+6.7%
same,"Withdrawal test, Change from b.l.","[1]; t = 1 h after 5 mg/Kg, listed as morphine",6.7%
same,"Withdrawal test, test 4",[1]; t = 1 h after 5 mg/Kg,9.1 gram force and 8.3 gram force and 7.4 gram force and 6.5 gram force and 5.0 gram force and 4.2 gram force and 5.3 gram force and 4.4 gram force
same,"Withdrawal test, test 5",[1]; t = 1 h after 5 mg/Kg,4.2 gram force and 9.8 gram force and 5.7 gram force and 9.0 gram force and 4.9 gram force and 9.2 gram force and 7.5 gram force and 5.8 gram force
same,"Withdrawal test, test 2",[1]; [4],6.5 gram force and 4.3 gram force and *10.3 gram force and 7.9 gram force and 8.3 gram force and 7.6 gram force and 4.2 gram force and 6.0 gram force
same,"Withdrawal test, test 3",[1]; [4],4.2 gram force and 8.1 gram force and *10.5 gram force and 4.5 gram force and 4.3 gram force and 4.4 gram force and 4.9 gram force and *10.2 gram force
same,"Withdrawal test, All group average",[1]; t = 3 h after 5 mg/Kg,5.79 gram force
same,"Withdrawal test, Average",[1]; t = 3 h after 5 mg/Kg,6.28 gram force and 6.00 gram force and 4.68 gram force and 5.50 gram force and 5.66 gram force and 5.12 gram force and 6.34 gram force and 5.34 gram force
same,"Withdrawal test, Change from b.l.",[1]; t = 3 h after 5 mg/Kg,−0.5%
same,"Withdrawal test, Change from b.l.","[1]; t = 3 h after 5 mg/Kg, listed as morphine",−0.5%
same,"Withdrawal test, test 2",[1]; t = 3 h after 5 mg/Kg,5.5 gram force (2×) and 6.8 gram force and 4.3 gram force and 6.1 gram force and 5.9 gram force and 4.4 gram force and 5.3 gram force
same,"Withdrawal test, test 4",[1]; t = 3 h after 5 mg/Kg,5.5 gram force and 4.9 gram force and 4.6 gram force and 4.3 gram force and 7.0 gram force and 5.3 gram force and 6.4 gram force and 5.8 gram force
same,"Withdrawal test, test 5",[1]; t = 3 h after 5 mg/Kg,6.9 gram force and 8.6 gram force and 5.5 gram force and 5.6 gram force and 4.6 gram force and 5.2 gram force and 6.1 gram force and 5.7 gram force
same,"Withdrawal test, test 6",[1]; t = 3 h after 5 mg/Kg,7.0 gram force and 4.5 gram force
same,"Withdrawal test, test 1",[1]; [5],7.2 gram force and 5.3 gram force (2×) and *11.6 gram force and 6.6 gram force and 5.6 gram force and 6.4 gram force and 5.4 gram force
same,"Withdrawal test, test 3",[1]; [5],6.3 gram force and 4.4 gram force and 4.3 gram force (2×) and 4.9 gram force and 5.2 gram force and 8.4 gram force and 4.5 gram force
same,"Withdrawal test, All group average",[1]; t = 24 h after 5 mg/Kg,5.09 gram force
same,"Withdrawal test, Average",[1]; t = 24 h after 5 mg/Kg,5.23 gram force and 4.80 gram force and 5.44 gram force and 5.28 gram force and 4.32 gram force and 6.08 gram force and 4.54 gram force and 5.00 gram force
same,"Withdrawal test, Change from b.l.",[1]; t = 24 h after 5 mg/Kg,−12.5%
same,"Withdrawal test, Change from b.l.","[1]; t = 24 h after 5 mg/Kg, listed as morphine",−12.5%
same,"Withdrawal test, test 1",[1]; t = 24 h after 5 mg/Kg,5.2 gram force (2×) and 4.0 gram force (2×) and 4.3 gram force and 4.1 gram force and 6.9 gram force and 5.4 gram force
same,"Withdrawal test, test 2",[1]; t = 24 h after 5 mg/Kg,4.7 gram force (3×) and 5.2 gram force and 5.3 gram force and 5.8 gram force and 6.0 gram force and 4.0 gram force
same,"Withdrawal test, test 3",[1]; t = 24 h after 5 mg/Kg,4.5 gram force and 6.5 gram force and 4.1 gram force (2×) and 4.0 gram force and 4.8 gram force and 5.1 gram force and 4.2 gram force
same,"Withdrawal test, test 6",[1]; t = 24 h after 5 mg/Kg,6.5 gram force and 4.3 gram force
same,"Withdrawal test, test 4",[1]; [6],*12.9 gram force and 4.0 gram force and 4.1 gram force and 6.7 gram force and 4.7 gram force (2×) and 4.6 gram force and 7.4 gram force
same,"Withdrawal test, test 5",[1]; [6],6.5 gram force and 4.3 gram force (2×) and 9.4 gram force and 4.6 gram force and 4.1 gram force and 8.0 gram force and 4.0 gram force
same,Hot plate Avg. 6 mice,"[2]; 5 mg/kg oral, t = 0.5 h",14.43 s
same,Hot plate Time,"[2]; 5 mg/kg oral, t = 0.5 h, cut-off 30 s",15.7 s and 13.1 s and 10.5 s and 23.8 s and 12.4 s and 11.1 s
same,Hot plate Avg. 6 mice,"[2]; 5 mg/kg oral, t = 3 h",14.05 s
same,Hot plate Time,"[2]; 5 mg/kg oral, t = 3 h",16.8 s and 11.4 s and 20.5 s and 12.6 s and 14.5 s and 8.5 s
same,Hot plate Avg. 6 mice,"[2]; 5 mg/kg oral, t = 6 h",14.25 s
same,Hot plate Time,"[2]; 5 mg/kg oral, t = 6 h",12.7 s and 8.0 s and 26.6 s and 19.7 s and 12.0 s and 6.5 s
same,Hot plate Avg. 3 mice,"[2]; 5 mg/kg oral, t = 24 h",5.8 s
same,Hot plate Time,"[2]; 5 mg/kg oral, t = 24 h",2.4 s and 9.0 s and 5.9 s
same,average increase in WRL compared to baseline (t=0),"[2]; 5 mg/kg, 0.5 h",26.9%
same,change in average WRL compared to t=0 at baseline,"[2]; 5 mg/kg, 3 h",+23%
same,change in average WRL compared to baseline,"[2]; 5 mg/kg, 6 h",+25%
same,average WRL less than baseline,"[2]; 5 mg/kg, 24 h, 3 animals",about 50%
